According to ChEMBL document CHEMBL3877259, “Design and discovery of 4-anilinoquinazoline-urea derivatives as dual TK inhibitors of EGFR and VEGFR-2” (Eur J Med Chem, 2017):

Tests used:
[1] = molecular target: Vascular endothelial growth factor receptor 2 (Homo sapiens, UniProt P35968); experiment: Inhibition of N-terminal GST-tagged human VEGFR-2 cytoplasmic domain (790 to 1356 residues) expressed in baculovirus expression system preincubated for 10 mins followed by FAM-labelled peptide substrate addition by caliper mobility shift assay
Chain of Vascular endothelial growth factor receptor 2 (P35968 whole entry, the tested form may be a part): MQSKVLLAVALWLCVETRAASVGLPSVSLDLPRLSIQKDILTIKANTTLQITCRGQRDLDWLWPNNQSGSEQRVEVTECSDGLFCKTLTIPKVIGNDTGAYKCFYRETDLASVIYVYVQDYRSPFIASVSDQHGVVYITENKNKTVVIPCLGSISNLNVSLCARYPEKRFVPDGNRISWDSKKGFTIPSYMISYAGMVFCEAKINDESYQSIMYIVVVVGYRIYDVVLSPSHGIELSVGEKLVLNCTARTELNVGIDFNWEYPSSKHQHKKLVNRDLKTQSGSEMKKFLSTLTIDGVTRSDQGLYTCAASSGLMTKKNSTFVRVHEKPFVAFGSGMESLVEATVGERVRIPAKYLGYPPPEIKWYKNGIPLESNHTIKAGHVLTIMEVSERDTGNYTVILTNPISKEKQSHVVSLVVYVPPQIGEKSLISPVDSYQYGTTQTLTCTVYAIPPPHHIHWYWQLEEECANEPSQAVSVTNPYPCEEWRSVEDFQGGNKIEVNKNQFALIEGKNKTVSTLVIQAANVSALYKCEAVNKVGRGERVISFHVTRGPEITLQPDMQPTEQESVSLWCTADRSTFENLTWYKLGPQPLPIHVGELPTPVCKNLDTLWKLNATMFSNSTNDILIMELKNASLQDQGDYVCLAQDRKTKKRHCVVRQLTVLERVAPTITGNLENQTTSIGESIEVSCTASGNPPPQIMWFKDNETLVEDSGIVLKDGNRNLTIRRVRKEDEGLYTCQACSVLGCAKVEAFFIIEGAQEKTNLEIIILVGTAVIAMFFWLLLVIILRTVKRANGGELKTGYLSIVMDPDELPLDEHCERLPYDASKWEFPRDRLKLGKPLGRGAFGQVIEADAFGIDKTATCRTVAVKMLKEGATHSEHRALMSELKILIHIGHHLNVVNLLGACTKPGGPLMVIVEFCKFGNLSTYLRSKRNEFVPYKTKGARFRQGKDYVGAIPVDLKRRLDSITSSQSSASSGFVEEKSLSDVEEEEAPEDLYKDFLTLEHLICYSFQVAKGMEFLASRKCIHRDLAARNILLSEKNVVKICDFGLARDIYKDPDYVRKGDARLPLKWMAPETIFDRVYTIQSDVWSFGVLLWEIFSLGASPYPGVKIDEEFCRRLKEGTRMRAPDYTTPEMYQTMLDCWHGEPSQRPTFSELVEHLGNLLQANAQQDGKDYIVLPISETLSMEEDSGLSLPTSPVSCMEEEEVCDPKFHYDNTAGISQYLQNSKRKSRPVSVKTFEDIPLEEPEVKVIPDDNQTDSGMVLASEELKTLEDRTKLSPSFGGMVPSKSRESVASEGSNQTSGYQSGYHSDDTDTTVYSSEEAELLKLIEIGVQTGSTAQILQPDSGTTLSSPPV

[2] = Antiproliferative activity against human HT-29 cells measured after 48 hrs by MTT assay; assay type: functional, cell-based; conditions: HT-29, 48 h
[3] = Antiproliferative activity against human MCF7 cells measured after 48 hrs by MTT assay; assay type: functional, cell-based; conditions: MCF7, 48 h
[4] = Antiproliferative activity against human H460 cells measured after 48 hrs by MTT assay; assay type: functional, cell-based; conditions: NCI-H460, 48 h
[5] = molecular target: Epidermal growth factor receptor (Homo sapiens, UniProt P00533)
Chain of Epidermal growth factor receptor (P00533 whole entry): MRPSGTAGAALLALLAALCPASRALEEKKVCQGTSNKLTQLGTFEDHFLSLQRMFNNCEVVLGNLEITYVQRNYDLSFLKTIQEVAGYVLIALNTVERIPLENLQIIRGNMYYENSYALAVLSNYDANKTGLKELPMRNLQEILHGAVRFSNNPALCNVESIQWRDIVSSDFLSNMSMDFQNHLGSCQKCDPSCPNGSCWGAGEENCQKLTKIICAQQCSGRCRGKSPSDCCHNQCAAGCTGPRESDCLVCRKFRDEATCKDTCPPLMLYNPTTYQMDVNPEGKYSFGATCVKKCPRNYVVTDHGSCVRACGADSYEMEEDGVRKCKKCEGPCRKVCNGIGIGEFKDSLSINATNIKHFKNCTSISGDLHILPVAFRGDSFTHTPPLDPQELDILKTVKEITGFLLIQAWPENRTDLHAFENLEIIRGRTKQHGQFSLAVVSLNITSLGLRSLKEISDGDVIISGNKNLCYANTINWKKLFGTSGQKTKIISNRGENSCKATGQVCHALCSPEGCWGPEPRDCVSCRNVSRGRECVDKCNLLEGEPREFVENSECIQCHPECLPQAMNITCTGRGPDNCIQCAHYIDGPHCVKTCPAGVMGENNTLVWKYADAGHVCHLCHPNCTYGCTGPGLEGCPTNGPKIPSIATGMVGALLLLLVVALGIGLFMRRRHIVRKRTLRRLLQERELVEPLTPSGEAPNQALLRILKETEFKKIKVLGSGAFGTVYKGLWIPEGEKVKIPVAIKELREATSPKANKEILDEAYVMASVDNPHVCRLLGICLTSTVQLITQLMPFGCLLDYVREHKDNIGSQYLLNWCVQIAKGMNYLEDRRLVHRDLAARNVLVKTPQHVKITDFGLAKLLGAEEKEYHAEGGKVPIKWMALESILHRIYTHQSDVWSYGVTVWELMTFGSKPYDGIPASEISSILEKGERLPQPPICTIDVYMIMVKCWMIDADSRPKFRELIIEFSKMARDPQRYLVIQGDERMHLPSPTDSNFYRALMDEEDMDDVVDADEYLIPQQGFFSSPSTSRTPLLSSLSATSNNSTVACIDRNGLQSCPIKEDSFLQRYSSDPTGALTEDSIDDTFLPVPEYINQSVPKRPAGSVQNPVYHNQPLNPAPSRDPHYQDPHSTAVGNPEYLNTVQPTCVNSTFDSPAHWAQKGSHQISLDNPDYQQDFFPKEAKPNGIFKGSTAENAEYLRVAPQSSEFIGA

| SMILES | IC50 [1] | IC50 [2] | IC50 [3] | IC50 [4] | IC50 [5] |
| --- | --- | --- | --- | --- | --- |
| COc1cc2c(Nc3ccc(NC(=O)Nc4cccc(Cl)c4)cc3)ncnc2cc1OCc1ccccc1 | > 10 µM | > 50 µM | > 50 µM | > 50 µM | 4.65 µM |
| COc1cc2c(Nc3ccc(NC(=O)Nc4cccc(Cl)c4)cc3)ncnc2cc1OCCCN1CCN(C)CC1 | 0.588 µM | 22.9 µM | 24.7 µM | 8.16 µM | 0.5 µM |
| COC(=O)CNC(=O)c1ccc(Nc2ncnc3cc(OCCCN4CCOCC4)c(OC)cc23)cc1 | 0.404 µM | > 50 µM | > 50 µM | > 50 µM | 0.763 µM |
| COc1cc2c(Nc3ccc(NC(=O)Nc4ccc(Cl)cc4)cc3)ncnc2cc1OCCCN1CCN(C)CC1 | 0.815 µM | 28.7 µM | > 50 µM | 17.8 µM | 0.235 µM |
| COc1cc2c(Nc3ccc(NC(=O)Nc4ccc(C)c(C)c4)cc3)ncnc2cc1OCCCN1CCN(C)CC1 | 0.214 µM | 25.9 µM | 36.5 µM | 22 µM | 0.668 µM |
| COc1cc2c(Nc3ccc(NC(=O)Nc4ccc(Cl)cc4)c(Cl)c3)ncnc2cc1OCCN1CCCCC1 | > 10 µM | 4.38 µM | 1.89 µM | 5 µM | > 10 µM |
| COc1cc2c(Nc3ccc(NC(=O)Nc4ccccc4C)cc3)ncnc2cc1OCc1ccccc1 | > 10 µM | 28.8 µM | > 50 µM | 23.9 µM | > 10 µM |
| COC(=O)CNC(=O)c1ccc(Nc2ncnc3cc(OCCN4CCCCC4)c(OC)cc23)cc1 | 0.966 µM | > 50 µM | 8.39 µM | > 50 µM |  |
| COc1cc2c(Nc3ccc(NC(=O)Nc4ccc(C)c(C)c4)c(Cl)c3)ncnc2cc1OCCCN1CCOCC1 | 0.014 µM | 7.29 µM | 2.63 µM | 3.52 µM | 0.051 µM |
| COc1cc2c(Nc3ccc(NC(=O)Nc4ccccc4)cc3)ncnc2cc1OCCCN1CCN(C)CC1 | 0.576 µM | 49.4 µM | 29.1 µM | 28.4 µM | 0.194 µM |
| COc1cc2c(Nc3ccc(NC(=O)Nc4ccc(F)c(Cl)c4)c(Cl)c3)ncnc2cc1OCCCN1CCN(C)CC1 | 0.014 µM | 6.41 µM | 3.2 µM | 12.1 µM | 0.078 µM |
| COc1cc2c(Nc3ccc(NC(=O)Nc4ccccc4C)cc3)ncnc2cc1OCCCN1CCN(C)CC1 | 1.99 µM | > 50 µM | 32.2 µM | 22.3 µM | 0.502 µM |
| COc1cc2c(Nc3ccc(NC(=O)Nc4ccccc4C)c(Cl)c3)ncnc2cc1OCCCN1CCN(C)CC1 | 0.178 µM | 4.81 µM | 6.21 µM | > 50 µM |  |
| COc1cc2c(Nc3ccc(NC(=O)Nc4ccc(C)c(C)c4)c(Cl)c3)ncnc2cc1OCCN1CCCCC1 | 0.018 µM | 1.85 µM | 1.27 µM | 2.9 µM | 0.817 µM |
| COc1cc2c(Nc3ccc(NC(=O)Nc4ccc(C)cc4)cc3)ncnc2cc1OCc1ccccc1 | > 10 µM | > 50 µM | > 50 µM | 25.4 µM | > 10 µM |
| COc1cc2c(Nc3ccc(NC(=O)Nc4ccccc4)c(Cl)c3)ncnc2cc1OCCN1CCCCC1 | 1.87 µM | > 50 µM | > 50 µM | > 50 µM | 0.212 µM |
| COc1cc2c(Nc3ccc(NC(=O)Nc4ccc(C)c(C)c4)cc3)ncnc2cc1OCc1ccccc1 | > 10 µM | > 50 µM | > 50 µM | 49.6 µM | > 10 µM |
| COc1cc2c(Nc3ccc(NC(=O)Nc4ccc(Cl)cc4)c(Cl)c3)ncnc2cc1OCCCN1CCOCC1 | 0.528 µM | 22 µM | 39.2 µM | 28 µM | 0.017 µM |
| COc1cc2c(Nc3ccc(NC(=O)Nc4ccc(Cl)cc4)c(Cl)c3)ncnc2cc1OCCCN1CCN(C)CC1 | 0.279 µM | 20.7 µM | > 50 µM | 28 µM | 0.001 µM |
| COc1cc2c(Nc3ccc(NC(=O)Nc4ccc(Cl)cc4)cc3)ncnc2cc1OCc1ccccc1 | > 10 µM | > 50 µM | > 50 µM | 38.8 µM | > 10 µM |
| COc1cc2c(Nc3ccc(NC(=O)Nc4ccc(C)c(C)c4)c(Cl)c3)ncnc2cc1OCCCN1CCN(C)CC1 | 0.079 µM | 1.76 µM | 7.28 µM | 26 µM | 0.001 µM |
| COC(=O)CNC(=O)c1ccc(Nc2ncnc3cc(OCCCN4CCN(C)CC4)c(OC)cc23)cc1 | 0.275 µM | > 50 µM | > 50 µM | > 50 µM | 0.611 µM |
| COc1cc2c(Nc3ccc(NC(=O)Nc4ccccc4)c(Cl)c3)ncnc2cc1OCCCN1CCN(C)CC1 | 0.261 µM | 17.3 µM | > 50 µM | 33 µM | 0.014 µM |
| COc1cc2c(Nc3ccc(NC(=O)Nc4ccccc4)cc3)ncnc2cc1OCc1ccccc1 | > 10 µM | > 50 µM | 22.8 µM | > 50 µM | 2.93 µM |
| COc1cc2/c(=N/c3ccc(Br)cc3F)nc[nH]c2cc1OCC1CCN(C)CC1 [VANDETANIB] |  | 18.9 µM | 11.8 µM | 37.1 µM |  |
